Measurements as given in PubChem BioAssay (NCI).
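Five concentrations, 48 hours, 96-well plates. TGI denotes the concentration required for complete inhibition of growth.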

Legend:
Test in all cases: NCI tumour cell line growth inhibition, 48 h
[1] = tested on: HOP-92 NSCLC
[2] = tested on: OVCAR-4 ovarian
[3] = tested on: BT-549 breast
[4] = tested on: K-562 leukemia
[5] = tested on: DU-145 prostate
[6] = tested on: MDA-MB-435
[7] = tested on: KM12 colon
[8] = tested on: NCI-H23 lung
[9] = tested on: OVCAR-3 ovarian
[10] = tested on: UO-31 renal
[11] = tested on: U251 CNS
[12] = tested on: SN12C renal
[13] = tested on: TK-10 renal
[14] = tested on: NCI-H226 lung
[15] = tested on: NCI-H522 lung
[16] = tested on: HCT-15 colon
[17] = tested on: SNB-19 CNS
[18] = tested on: PC-3 prostate
[19] = tested on: SK-MEL-2 melanoma
[20] = tested on: MALME-3M melanoma
[21] = tested on: SW-620 colon
[22] = tested on: MOLT-4 leukemia
[23] = tested on: HL-60(TB) leukemia
[24] = tested on: SR leukemia
[25] = tested on: LOX IMVI melanoma
[26] = tested on: MDA-N
[27] = tested on: M14 melanoma
[28] = tested on: CCRF-CEM leukemia
[29] = tested on: NCI/ADR-RES ovarian
[30] = tested on: MCF7 breast
[31] = tested on: OVCAR-5 ovarian
[32] = tested on: UACC-257 melanoma
[33] = tested on: A549 NSCLC
[34] = tested on: OVCAR-8 ovarian
[35] = tested on: SF-268 CNS
[36] = tested on: SF-295 CNS
[37] = tested on: HT29 colon
[38] = tested on: SK-MEL-28 melanoma
[39] = tested on: HCC-2998 colon
[40] = tested on: SF-539 CNS
[41] = tested on: NCI-H460 lung
[42] = tested on: SK-OV-3 ovarian
[43] = tested on: RPMI-8226 leukemia
[44] = tested on: SNB-75 CNS
[45] = tested on: SK-MEL-5 melanoma
[46] = tested on: HCT-116 colon
[47] = tested on: MDA-MB-231 breast
[48] = tested on: 786-0 renal
[49] = tested on: RXF 393 renal
[50] = tested on: IGROV1 ovarian
[51] = tested on: EKVX NSCLC
[52] = tested on: T-47D breast
[53] = tested on: HS 578T breast
[54] = tested on: COLO 205 colon
[55] = tested on: HOP-62 NSCLC
[56] = tested on: ACHN renal
[57] = tested on: UACC-62 melanoma
[58] = tested on: CAKI-1 renal

COc1ccccc1C1(C)SCc2nc3ccccc3n21 (configuration not stated)
TGI [1]: > 10 µM | TGI [2]: > 10 µM | TGI [3]: > 10 µM | TGI [4]: > 10 µM | TGI [5]: > 10 µM | TGI [6]: > 10 µM | TGI [7]: > 10 µM | TGI [8]: > 10 µM | TGI [9]: > 10 µM | TGI [10]: > 10 µM | TGI [11]: > 10 µM | TGI [12]: > 10 µM | TGI [13]: > 10 µM | TGI [14]: > 10 µM | TGI [15]: > 10 µM | TGI [16]: > 10 µM | TGI [17]: > 10 µM | TGI [18]: > 10 µM | TGI [19]: > 10 µM | TGI [20]: > 10 µM | TGI [21]: > 10 µM | TGI [22]: > 10 µM | TGI [23]: > 10 µM | TGI [24]: > 10 µM | TGI [25]: > 10 µM | TGI [26]: > 10 µM | TGI [27]: > 10 µM | TGI [28]: > 10 µM | TGI [29]: > 10 µM | TGI [30]: > 10 µM | TGI [31]: > 10 µM

COC(=O)c1ccccc1C1=C([N+](=O)[O-])C(c2ccccc2)C(C#N)=C(N)O1 (configuration not stated)
TGI [32]: > 100 µM | TGI [1]: > 100 µM | TGI [33]: > 100 µM | TGI [34]: > 100 µM | TGI [35]: > 100 µM | TGI [4]: > 100 µM | TGI [5]: > 100 µM | TGI [6]: > 100 µM | TGI [36]: > 100 µM | TGI [37]: > 100 µM | TGI [7]: > 100 µM | TGI [8]: > 100 µM | TGI [9]: 88.9 µM | TGI [11]: > 100 µM | TGI [38]: > 100 µM | TGI [39]: > 100 µM | TGI [12]: > 100 µM | TGI [40]: > 100 µM | TGI [13]: > 100 µM | TGI [14]: > 100 µM | TGI [15]: 30.8 µM | TGI [41]: > 100 µM | TGI [16]: 46.6 µM | TGI [42]: > 100 µM | TGI [17]: > 100 µM | TGI [18]: > 100 µM | TGI [19]: > 100 µM | TGI [43]: > 100 µM | TGI [21]: > 100 µM | TGI [44]: > 100 µM | TGI [45]: > 100 µM | TGI [22]: > 100 µM | TGI [23]: > 100 µM | TGI [46]: > 100 µM | TGI [24]: > 100 µM | TGI [25]: > 100 µM | TGI [47]: > 100 µM | TGI [26]: > 100 µM | TGI [27]: > 100 µM | TGI [28]: > 100 µM | TGI [29]: > 100 µM | TGI [48]: > 100 µM | TGI [49]: 95.2 µM | TGI [50]: > 100 µM | TGI [51]: > 100 µM | TGI [52]: > 100 µM | TGI [53]: > 100 µM | TGI [54]: > 100 µM | TGI [31]: > 100 µM | TGI [55]: > 100 µM | TGI [56]: > 100 µM | TGI [57]: > 100 µM

CC(=O)OCC12CCC3C4(C)CCCC(C)(C)C4CCC3(C)C1CC(C1=CC(=O)OC1O)O2 (configuration not stated)
TGI [32]: 3.63 µM | TGI [33]: > 10 µM | TGI [34]: 3.91 µM | TGI [4]: 4.72 µM | TGI [5]: 6.64 µM | TGI [36]: 5.56 µM | TGI [37]: 3.58 µM | TGI [7]: 3.54 µM | TGI [8]: 3.86 µM | TGI [38]: 3.44 µM | TGI [39]: 3.67 µM | TGI [12]: 3.09 µM | TGI [13]: 3.31 µM | TGI [16]: 2.5 µM | TGI [42]: 6.32 µM | TGI [18]: 2.63 µM | TGI [43]: > 10 µM | TGI [20]: 2.44 µM | TGI [21]: 6.47 µM | TGI [44]: 3.32 µM | TGI [45]: 3.44 µM | TGI [22]: 0.797 µM | TGI [23]: 2.76 µM | TGI [24]: 0.846 µM | TGI [25]: 2.54 µM | TGI [47]: 4.44 µM | TGI [26]: 2.89 µM | TGI [27]: 2.96 µM | TGI [28]: > 10 µM | TGI [48]: 2.28 µM | TGI [49]: 3.82 µM | TGI [50]: 3.6 µM | TGI [51]: 5.92 µM | TGI [52]: > 10 µM | TGI [58]: 2.81 µM | TGI [30]: > 10 µM | TGI [54]: 4.18 µM | TGI [55]: 6.45 µM | TGI [57]: 4.82 µM
